Values of other authors, collected in patent publication US20150231092A1, “NOVEL EFFERVESCENT SACHET FORMULATIONS OF DAPOXETINE AND A PDE5 INHIBITOR” (Sanovell IIac Sanayi Ve Ticaret Anonim Sirketi, priority 2012, published 2015).

Tests used:
[1] = following oral administration
[2] = following oral administration; remark: listed apart in the source

solubility in water | Structure (SMILES) | binding to plasma proteins [1] | onset of action [2] [min] | onset of action takes (second sentence; apparently action time) [2]
– | CN(C)[C@@H](CCOc1cccc2ccccc12)c1ccccc1 [dapoxetine] | almost completely binding to plasma proteins | – | –
poorly soluble in water | CN1CC(=O)N2[C@H](c3ccc4c(c3)OCO4)c3[nH]c4ccccc4c3C[C@@H]2C1=O [tadalafil, (6R-trans)-6-(1,3-benzodioxol-5-yl)-2,3,6,7,12,12a-hexahydro-2-methyl-pyrazino[1′,2′:1,6]pyrido[3,4-b]indole-1,4-dione] | – | 15 | up to 36 hours
